Experimental findings from BindingDB's records for doi:10.1021/jm00382a015 (1985) are described below.

This assay has as its target Adenosylhomocysteinase (Bos taurus). Put plainly: Binding affinity against S-adenosyl-homocysteine hydrolase.

In turn, `Nc1ncnc2c1nnn2C1CC(CO)C(O)C1O` (configuration not stated) [3-(7-amino-3H-[1,2,3]triazolo[4,5-d]pyrimidin-3-yl)-5-hydroxymethyl-1,2-cyclopentanediol] came in with a Ki of 22 µM.
`Nc1nccc2c1ncn2[C@@H]1C[C@H](CO)[C@@H](O)[C@H]1O` [3-DEAZAARISTEROMYCIN A]: the Ki came out at 0.004 µM.

Usually Ki stands for a dissociation constant, usually derived from enzyme kinetics or from competition with a known ligand. A lower Ki goes with a stronger hold on the target.
